This is an account of results in patent US6924307B2, “Aminobutyric acid derivatives and pharmaceutical composition containing the same as active ingredient” (Ono Pharmaceutical Co., Ltd., priority 1999, dated 2005).

pIC50: −log10 of the molar value.

What all share (type): biochemical
The target of one assay is T1, gelatinase A (Homo sapiens, UniProt P08253).
T1 construct: endogenous in cells; host or cells: human normal skin dermal fibroblasts (HNDF)
T1 sequence (P08253 110-660): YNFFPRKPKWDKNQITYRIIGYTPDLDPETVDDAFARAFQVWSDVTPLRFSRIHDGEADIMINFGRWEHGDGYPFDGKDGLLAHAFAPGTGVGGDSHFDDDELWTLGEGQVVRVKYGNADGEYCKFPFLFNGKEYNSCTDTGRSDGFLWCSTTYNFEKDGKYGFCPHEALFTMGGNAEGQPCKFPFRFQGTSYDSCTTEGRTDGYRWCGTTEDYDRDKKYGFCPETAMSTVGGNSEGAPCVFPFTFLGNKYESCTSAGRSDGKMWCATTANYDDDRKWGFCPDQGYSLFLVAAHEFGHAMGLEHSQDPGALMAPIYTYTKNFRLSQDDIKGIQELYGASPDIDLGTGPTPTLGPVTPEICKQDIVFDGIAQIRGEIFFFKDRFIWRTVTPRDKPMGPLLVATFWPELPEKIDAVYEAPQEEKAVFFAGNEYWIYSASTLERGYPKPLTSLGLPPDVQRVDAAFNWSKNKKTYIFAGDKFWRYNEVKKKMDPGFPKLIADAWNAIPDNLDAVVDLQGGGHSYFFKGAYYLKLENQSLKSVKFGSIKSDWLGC
Briefly: Inhibitory activity against gelatinase A (fluorogenic synthetic substrate). The note with it: gelatinase A from progelatinase A purified from human normal skin dermal fibroblasts (HNDF), APMA-activated; 37° C. The procedure:
(1) Inhibitory Activity Against Gelatinase A
The progelatinase A (5 μl; in assay buffer (40 μl)) was purified from human normal skin dermal fibroblasts (HNDF). It was activated by adding thereto 10 mM of p-aminophenylmercuric acetate (APMA) (5 μl) and preincubating for 1 hour at 37° C.
A mixture of the synthetic substrate (MOCAc-Pro-Leu-Gly-A2pr(Dnp)-Ala-Arg-NH2) (130 μl; a final concentration 13.5 μM) and a solution (20 μl) with or without various concentrations of the test compound was preincubated for 5 minutes at 37° C.
The solution of activated gelatinase A (50 μl/well) was mixed with the mixture and the mixture was incubated for 15 minutes at 37° C. The enzyme reaction was started. The enzyme activity was represented by increasing value of fluorescent intensity [Ex=325 nm (Ex)/393 nm (Em)] per 1 minute. Inhibitory activity was represented by inhibitory percentage (%) per enzyme activity without the test compound.

In the next assay the target is T2, human stromelysin (Homo sapiens, UniProt P08254).
T2 construct: purchased Yagai
T2 sequence (P08254 100-477): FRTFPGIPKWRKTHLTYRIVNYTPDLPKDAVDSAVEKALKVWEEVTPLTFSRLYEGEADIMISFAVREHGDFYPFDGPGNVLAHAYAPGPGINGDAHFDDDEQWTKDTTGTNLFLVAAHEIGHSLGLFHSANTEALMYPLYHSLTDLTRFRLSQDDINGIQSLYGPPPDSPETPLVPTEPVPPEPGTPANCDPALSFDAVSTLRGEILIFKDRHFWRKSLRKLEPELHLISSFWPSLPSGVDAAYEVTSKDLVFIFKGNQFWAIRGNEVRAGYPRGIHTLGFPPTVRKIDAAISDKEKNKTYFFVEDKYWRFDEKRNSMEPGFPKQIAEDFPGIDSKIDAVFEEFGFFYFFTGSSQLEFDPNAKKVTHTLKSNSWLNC
The experiment in a line: Inhibitory activity against stromelysin (synthetic substrate NFF-3, fluorescence). The note with it: APMA-activated, pH 7.5, 37° C. The procedure: (3) Inhibitory Activity Against Stromelysin Method:
The mixture of human stromelysin (Yagai; 9 volume) and 10 mM p-aminophenylmercury acetate (1 volume) was activated for 20 hours at 37° C. A solution of the test compound in dimethylsulfoxide (10 μl) and 0.5 mM solution (10 μl) of 10 mM solution of the synthetic substrate NFF-3 (Mca-Arg-Pro-Lys-Pro-Val-Glu-Nva-Trp-Arg-Lys(DNP)-NH2., Nva: norvaline, Peptide Laboratory) in dimethylsulfoxide diluted by water were added to assay buffer (50 mM tris-HCl, 10 mM CaCl2, 0.05% Brij35, 0.02% NaN3 (pH 7.5)) (150 μl). Furthermore, assay buffer (30 μl) was added to the mixture. The mixture was incubated for 10 minutes at 37° C. The reaction was started by addition of a solution of the above activated stromelysin solution (50 μl). The enzyme activity was represented by increasing value of fluorescent intensity [Ex=325 nm (Ex)/393 nm (Em)] per 1 minute. Inhibitory activity was represented by inhibitory percentage (%) per enzyme activity without the test compound.

For the next assay, the target named is T3, collagenase (Homo sapiens, UniProt P03956).
T3 construct: endogenous in cells; host or cells: human normal skin dermal fibroblasts (HNDF)
T3 sequence (P03956 100-469): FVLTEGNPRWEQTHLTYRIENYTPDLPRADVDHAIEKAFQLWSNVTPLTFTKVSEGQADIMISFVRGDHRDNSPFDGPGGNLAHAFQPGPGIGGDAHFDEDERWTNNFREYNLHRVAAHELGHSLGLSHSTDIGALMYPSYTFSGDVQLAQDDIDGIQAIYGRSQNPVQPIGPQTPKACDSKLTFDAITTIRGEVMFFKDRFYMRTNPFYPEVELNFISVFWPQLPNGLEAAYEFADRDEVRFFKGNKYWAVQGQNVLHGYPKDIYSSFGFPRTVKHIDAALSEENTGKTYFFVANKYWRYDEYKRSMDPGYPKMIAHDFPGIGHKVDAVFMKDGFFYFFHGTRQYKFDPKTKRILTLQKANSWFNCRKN
Briefly: Inhibitory activity against collagenase (thiopeptolide synthetic substrate, absorption at 324 nm). The note with it: collagenase from procollagenase purified from human normal skin dermal fibroblasts (HNDF), trypsin-activated; 26° C. On the procedure:
(2) Inhibitory Activity Against Collagenase Method:
The procollagenase (5 μl; in assay buffer (105 μl)) was purified from human normal skin dermal fibroblasts (HNDF). It was activated by adding thereto 1 mg/ml Trypsin (45 μl) and preincubating for 1 minute at 37° C. Trypsin was inactivated by addition of 5 mg/ml soybean trypsin inhibitor (SBTI; 50 μl).
A mixture of the synthetic substrate (Ac-Pro-Leu-Gly-[2-mercapto-4-methyl-pentanoyl]-Leu-Gly-OEt) (105 μl; a final concentration 1.33 mM) and a solution (20 μl) with or without various concentrations of the test compound was preincubated for 5 minutes at 26° C.
The solution of activated enzyme (75 μl /tube, 50 μl) was mixed with the mixture and the mixture was incubated for 10 minutes at 26° C.
Absorption at 324 nm was measured 40 points in the course of 10 minutes. Vmax value was determined as measured value in 30 points therein.

Turning to `CCOCOC[C@H](C[C@H](COC)C(=O)NO)NC(=O)c1ccc(Oc2ccccc2)cc1` [8(6), N-hydroxy-5-ethoxymethoxy-2(R)-methoxymethyl-4(S)-[N-(4-phenoxyphenylcarbonyl)amino]pentanamide], the negative-log IC50 (pIC50) on gelatinase A is 8.77; at human stromelysin, 7.54.
With `CCOCOC[C@H](C[C@H](COC)C(=O)NO)NC(=O)c1ccc(-c2ccco2)cc1` [8(7), N-hydroxy-5-ethoxymethoxy-2(R)-methoxymethyl-4(S)-[N-(4-(2-furyl)phenylcarbonyl)amino]pentanamide], the pIC50 on human stromelysin is 7.40.
As to `CN(C(=O)c1ccc(Br)cc1)[C@H](CO)C[C@H](CCCc1ccccc1)C(=O)NO` [16(2), N-hydroxy-2(S)-(3-phenylpropyl)-5-hydroxy-4(S)-[N-methyl-N-(4-bromophenylcarbonyl)amino]pentanamide], the pIC50 on gelatinase A is 8.38.
Turning to `C#CCOC[C@@H](C[C@@H](COCOCC)NC(=O)c1ccc(Cl)cc1)C(=O)NO` [20(3), N-hydroxy-5-ethoxymethoxy-2(R)-(2-propynyloxymethyl)-4(S)-[N-(4-chlorophenylcarbonyl)amino]pentanamide], the pIC50 against collagenase is 8.17.
Still for that read-out and setting: with `C#CC[C@@H](C[C@@H](CO)N(C)C(=O)c1ccc(Br)cc1)C(=O)NO` [21(2), N-hydroxy-2(S)-(2-propynyl)-5-hydroxy-4(S)-[N-methyl-N-(4-bromophenylcarbonyl)amino]pentanamide] the figure was 8.12; with `CCOCOC[C@H](C[C@H](COC)C(=O)NO)NC(=O)c1ccc(C#N)cc1` [compound 8], 7.85.
